Results as given in EP4684787A1, “PHARMACEUTICAL COMPOSITION CONTAINING DIPEPTIDYL PEPTIDASE SMALL MOLECULE INHIBITOR” (Haisco Pharmaceuticals Pte. Ltd., priority 2023, dated 2024).

Key:
[1] = Pharmacokinetic Experiment in Rats; format: in vivo, SD rats; conditions: Intravenous (1 mg/kg), rat plasma
Experimental: 1.1 Test animals: Male SD rats, ca. 220 g, 6-8 weeks old, 6 rats/compound. The rats were purchased from […] EXPERIMENTAL ANIMALS CO., LTD. 1.2 Test design: On the day of the test, 6 SD rats were randomly divided into groups according to body weight. The rats were fasted but had access to water for 12-14 hours one day before administration. The rats were fed 4 hours after administration. Table 9. Information for administration Vehicle for intravenous administration: 5% DMA + 5% Solutol + 90% Saline; Vehicle for oral gavage: 0.5% MC; control compound […] is namely Compound 2 in patent WO2015110826A1, and was prepared according to the method described in the patent. Rats were anesthetized with isoflurane before and after administration. Blood (0.1 ml) was collected by orbital blood collection and placed in EDTAK2 centrifuge tube. The blood sample was centrifuged at 5000 rpm at 4°C for 10 min. The plasma was collected. […] All samples were stored at -80° C till analysis and detection. Table 10. Pharmacokinetic parameters of test compounds in rat plasma

NE enzyme = conditions: background statement, no data; cited from earlier work
[2] = tested on: LPS-induced acute lung injury; conditions: background statement, no data; cited from earlier work

Cn1c(=O)oc2ccc(-c3ccc(C[C@@H](C#N)NC(=O)[C@@H]4CNCCCO4)cc3)cc21 [INS 1007, reference compound]
CL [1]: 2.08 mL/min/kg
Vdss [1]: 0.738 L/kg

Cn1c(=O)oc2ccc(-c3ccc(C[C@@H](C#N)NC(=O)[C@@H]4CNCCCO4)c(F)c3)cc21 [Compound A, (S)-N-((S)-1-cyano-2-(2-fluoro-4-(3-methyl-2-oxo-2,3-dihydrobenzo[d]oxazol-5-yl)phenyl)ethyl)-1,4-oxazepane-2-carboxamide]
CL [1]: 1.66 mL/min/kg
Vdss [1]: 0.753 L/kg
NE enzyme activity in rat bone marrow (NE enzyme): significantly inhibit
LPS-induced acute lung injury in mice [2]: mitigate
